Data reported in patent publication US9587001B2, “Conjugated knottin mini-proteins containing non-natural amino acids” (priority 2012, dated 2017).
Starred links: 1 amine or outer side, 2 acyl side, 3 side chain; linkers in the order of their positions; H or OH if unused. Positions of bridges follow the written chain, without caps; N, C: chain ends. Non-standard residues stand in square brackets, D forms with d. Residues, ends and D or L forms follow the SMILES beside them. Primed or numbered codes have the meaning given here. Chains are numbered I, II in the order given. No end group written: not given here. AO″ = AO: aminooxy residue, 2-amino-3-(2-(aminooxy)acetamido)propanoic acid (side chain carries R'-O-NH2), O=C(CON[*:3])NC[C@H](N[*:1])C(=O)[*:2]; X1 = O=C(NCCCOCCCCOCCCNC(=O)c1ccc(C=NOCC(=O)[*:2])cc1)c1ccc(C=NOCC(=O)[*:1])cc1; Dap = NC[C@H](N)C(=O)O

Tests used:
[1] = system: MDA231 (Human breast adenocarcinoma); assay: Inhibition of proliferation, MDA231 carcinoma line; type: cell-based; conditions: for Proliferation: Cell line: MDA231; for inhibition of tumor cell proliferation, comparison between dimers, monomer and Cilengitide: Table 3 results
Experimental: (§1) Dimers of the present knottins with AO groups incorporated at different positions were prepared and conjugated with different linkages. There were tested for activity against carcinoma lines. As identified there, Dimer 1 is EETI 2.5F where the AO group was incorporated in place of Lys15, conjugated through the 17.3 Angstrom linker shown in FIG. 1B; Dimer 2 is EETI 2.5F, where the AO group was incorporated in place of Lys15, conjugated though the 68.5 Angstrom linker shown in FIG. 9. Dimer 3 is EETI 2.5F, where the AO group was incorporated at the C-terminus following residue 33, conjugated through a 17.3 Angstrom linker shown in FIG. 1B; Dimer 4 is EETI 2.5F, where the AO group was incorporated at the C-terminus following residue 33, conjugated through the 68.5 Angstrom linker shown in FIG. 9. […] Also, it was observed that the length of the linkage had only a minor effect on binding. Binding, of course, it correlated with the activity in proliferation and apoptosis.

[2] = system: SKOV 3 (Ovarian adenocarcinoma); assay: Inhibition of proliferation, SKOV 3 carcinoma line; type: cell-based; conditions: Cell line: SKOV 3
Experimental: as §1

[3] = system: U87MG cells; type: cell-based, human; conditions: for EC50: U87MG cells on fibronectin coated plates, 1 h at 37° C., read-out: Adhesion EC50
Experimental: FIG. 3A is a graph measuring comparative inhibition of adhesion of U87MG cells treated with dimeric and monomeric 2.5F to fibronectin, a component of ECM. Fibronectin coated plates were incubated with U87MG cells with the indicated concentrations of peptides. Adherent cells remaining after several wash steps were quantified with crystal violet staining by absorbance at 600 nm. […] Values were normalized to negative control containing no competing peptides.
FIG. 7 is a graph measuring comparative inhibition of adhesion of U87MG cells treated with dimeric and monomeric 2.5F or Cilgenitide to fibronectin, a component of ECM. Fibronectin coated plates were incubated with U87MG cells with the indicated concentrations of peptides. Adherent cells remaining after several wash steps were quantified with crystal violet staining by absorbance at 600 nm. Values were normalized to negative control containing no competing peptides.
Varying concentrations of peptides were added to 4×10^4 cells in 100 μl of IBB, incubated for 1 h at 37° C., 5% CO2, and gently washed with Dulbecco's PBS (DPBS, Invitrogen). Remaining adherent cells were incubated with 100 μl of 0.2% crystal violet and 10% ethanol for 10 min at room temperature, washed in DPBS and solubilized with 100 μl/well of a 50:50 mixture of 100 mM sodium phosphate, pH 4.5 and ethanol for 10 min. The absorbance at 600 nm was measured using Synergy HT microplate reader (BioTek).

[4] = system: MDA231 (Human breast adenocarcinoma); assay: Apoptosis (Caspase-3), MDA231 carcinoma line; type: cell-based; conditions: Cell line: MDA231
Experimental: as §1

[5] = system: U87MG cells; assay: U87MG cell morphology after knottin treatment (microscope images); type: cell-based, human; conditions: 500 nM, 24 h, DMEM media with 4% FBS
Experimental: FIG. 3B is a panel of microscope images of the U87MG cells on culture plates after 24 h treatment with 500 nM of the indicated knottins.

[6] = system: U87MG cells expressing αvβ3, αvβ5, and α5β1 integrins; assay: Competition binding assay to U87MG cells (flow cytometry); parameters: species or system human; conditions: for IC50: 4° C. for 10 h, average of three experiments; for increase of apparent binding affinity of dimer compared to the monomer: from IC50 values
Experimental: FIG. 2B is a graph showing a competition assay of EETI-based integrin binding proteins 2.5F dimer and 2.5F monomer to U87MG cells, as measured by flow cytometry. Alexa488-labeled EETI 2.5F was used as a competitor. Monomeric EETI 2.5F with an introduced aminooxy residue is designated as 2.5F_AO.
FIG. 2C is a graph showing a competition assay of AgRP-based integrin binding proteins: dimeric 7C and monomeric 7C to U87MG cells, as measured by flow cytometry. Alexa488-labeled AgRP 7C was used as a competitor. Monomeric AgRP 7C with aminooxy residue is designated as Monomeric 7C_AO.
Alexa488-labeled EETI 2.5F was used as a competitor.
Competition binding assays were performed to measure the relative binding affinities of engineered knottins to U87MG cells expressing αvβ3, αvβ5, and α5β1 integrins (FIG. 2A, 2B, 2C). 2×10^5 U87MG cells were incubated at 4° C. for 10 h in integrin binding buffer (20 mM Tris pH 7.5, 1 mM MgCl2, 1 mM MnCl2, 2 mM CaCl2, 100 mM NaCl, and 0.1% BSA) and varying concentrations of the peptides with 0.25 nM of Alexa488-labeled EETI 2.5F as a competitor for dimeric and monomeric EETI 2.5F, and 5 nM of Alexa488-labeled AgRP 7C as a competitor for dimeric and monomeric AgRP 7C. Half-maximal inhibitory concentration (IC50) values were determined by nonlinear regression analysis using KaleidaGraph (Synergy Software), and are presented as the average of three separate experiments.

[7] = system: U87MG cells; assay: Cytotoxicity / inhibition of proliferation of U87MG cells (AlamarBlue); type: cell-based, human
Experimental: FIG. 4A is a bar graph showing time dependent cytotoxicity of U87MG cells after treatment with the indicated knottin mini-proteins. Cytotoxicity was monitored by incubating U87MG cells on culture plates with 500 nM of each knottin in 4% FBS media at 37° C. and 5% CO2 and measuring cell viability at 24, 48, and 72 h after the treatment using the AlamarBlue indicator dye.
FIG. 4B is a bar graph showing dose dependent cytotoxicity of U87MG cells assessed by treating with different concentrations of knottins for 72 h and measuring cell viability using the AlamarBlue indicator dye.
FIG. 8 is a bar graph showing dose dependent cytotoxicity of U87MG cells assessed by treating with different concentrations of dimeric or monomeric 2.5F or Cilgenitide for 72 h and measuring cell viability using the AlamarBlue indicator dye.

[8] = 0.25 nM Alexa488-labeled EETI 2.5F as competitor

Row | Compound | Proliferation [1] | inhibition of tumor cell proliferation, comparison between dimers, monomer and Cilengitide [1] | Proliferation [2] | inhibition of U87MG cell adhesion to fibronectin (in words) ([3]; fibronectin-coated plates) | Apoptosis (Caspase-3) [4] | EC50 [3] | U87MG cell morphology [5] | IC50 [6, 8] | inhibition of U87MG cell proliferation ([7]; 10 nM, 72 hours) | inhibition of U87MG cell proliferation ([7]; 100 nM, 72 hours) | inhibition of U87MG cell proliferation ([7]; 500 nM, 24 h) | inhibition of U87MG cell proliferation ([7]; 500 nM, 48 h) | inhibition of U87MG cell proliferation ([7]; 500 nM, 72 h) | inhibition of U87MG cell proliferation ([7]; 1000 nM, 72 hours) | increase of apparent binding affinity of dimer compared to the monomer [6] | also measured
1 | 2.5F Dimer2: EETI 2.5F, AO in place of Lys15, conjugated though the 68.5 Angstrom linker shown in FIG. 9 (GCPRPRGDNPPLTC[AO″]QDSDCLAGCVCGPNGFCG; ends and bridges not checked; also: dimer (Dimer2) conjugated through 68.5 Angstrom linker via AO15) | Strong inhibition | more strongly inhibited tumor cell proliferation compared to Dimers 3 and 4 | Strong inhibition | – | – | – | – | – | – | – | – | – | – | – | – | –
2 | CC(C)[C@H]1C(=O)N[C@@H](CCCN=C(N)N)C(=O)NCC(=O)N[C@@H](CC(=O)O)C(=O)N[C@H](Cc2ccccc2)C(=O)N1C [Cilengitide, reference compound] | Weak inhibition | – | – | does not inhibit | Moderate induction | – | – | – | – | – | – | – | – | – | – | –
3 | CC(C)C[C@@H]1NC(=O)[C@@H]2CSSC[C@@H](C(=O)NCC(=O)O)NC(=O)[C@H](Cc3ccccc3)NC(=O)CNC(=O)[C@H](CC(N)=O)NC(=O)[C@@H]3CCCN3C(=O)CNC(=O)[C@@H]3CSSC[C@H](NC(=O)[C@H]([C@@H](C)O)NC(=O)[C@H](CC(C)C)NC(=O)[C@@H]4CCCN4C(=O)[C@@H]4CCCN4C(=O)[C@H](CC(N)=O)NC(=O)[C@H](CC(=O)O)NC(=O)CNC(=O)[C@H](CCCNC(=N)N)NC(=O)[C@@H]4CCCN4C(=O)[C@H](CCCNC(=N)N)NC(=O)[C@@H]4CCCN4C(=O)[C@@H](NC(=O)CN)CSSC[C@H](NC(=O)CNC(=O)[C@H](C)NC1=O)C(=O)N[C@@H](C(C)C)C(=O)N3)C(=O)N[C@@H](CCCCN)C(=O)N[C@@H](CCC(N)=O)C(=O)N[C@@H](CC(=O)O)C(=O)N[C@@H](CO)C(=O)N[C@@H](CC(=O)O)C(=O)N2 [EETI 2.5F] (H-GCPRPRGDNPPLTCKQDSDCLAGCVCGPNGFCG-OH; disulfide 2-24, 14-26, 20-32) | Weak inhibition | – | – | able to inhibit | Moderate induction | 180 ± 14 nM | rounded morphology | 1.64 ± 0.03 nM | 15% | 30% | 37% | 44% | 50% | 60% | – | –
4 | I: GCPRPRGDNPPLTC[Dap]QDSDCLAGCVCGPNGFCG / II: GCPRPRGDNPPLTC[Dap]QDSDCLAGCVCGPNGFCG (disulfide I:2-I:24, I:14-I:26, I:20-I:32, II:2-II:24, II:14-II:26, II:20-II:32; linker I:15-II:15 via X1) [EETI 2.5F Dimer] | Strong inhibition | more strongly inhibited tumor cell proliferation compared to Dimers 3 and 4 | Strong inhibition | able to inhibit | Strong induction | 8 ± 2 nM | rounded morphology | 0.036 ± 0.002 nM | 28% | 52% | 53% | 68% | 69% | 70% | approximately 46 fold | more effective in preventing U87MG cell adhesion compared to the monomer ([3]; fibronectin-coated plates): 100 fold; more potent at inhibiting cell proliferation compared to Cilengitide ([7]; U87MG cells, 72 h): 100 fold
5 | I: GCVRLHESCLGQQVPCCDPAATCYCYGRGDNDLRCYC[Dap] / II: GCVRLHESCLGQQVPCCDPAATCYCYGRGDNDLRCYC[Dap] (disulfide I:2-I:17, I:9-I:23, I:16-I:37, I:25-I:35, II:2-II:17, II:9-II:23, II:16-II:37, II:25-II:35; linker I:38-II:38 via X1) [AgRP 7C Dimer] | – | – | – | – | – | – | – | – | – | – | – | – | – | – | ~4 fold | IC50 ([6]; 5 nM Alexa488-labeled AgRP 7C as competitor): 3.2 ± 0.6 nM
6 | scrambled EETI FNRDG monomer [FNRDG_AO, reference compound] | – | – | – | not able to inhibit cell adhesion | – | – | – | – | – | – | – | – | – | – | – | binding (in words) ([6]; scrambled controls): negligible binding; inhibition of U87MG cell proliferation (in words) ([7]; scrambled controls): did not induce significant inhibition
